Test results published in patent publication US10829501B2 (BRISTOL-MYERS SQUIBB COMPANY, priority 2016, dated 2020).
pIC50: −log10 of the molar value. Where a name gives a salt, the structure may show the parent alone.

target: ROCK2 (Homo sapiens, UniProt O75116); assay: ROCK2 kinase inhibition assay (LABCHIP 3000 Reader, FITC peptide substrate);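 further: rho kinase reaction read by separating phosphorylated from unphosphorylated peptide on chip, with inhibition of kinase activity computed per concentration across a dose-response series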
Sequence (O75116 whole entry, species assumed): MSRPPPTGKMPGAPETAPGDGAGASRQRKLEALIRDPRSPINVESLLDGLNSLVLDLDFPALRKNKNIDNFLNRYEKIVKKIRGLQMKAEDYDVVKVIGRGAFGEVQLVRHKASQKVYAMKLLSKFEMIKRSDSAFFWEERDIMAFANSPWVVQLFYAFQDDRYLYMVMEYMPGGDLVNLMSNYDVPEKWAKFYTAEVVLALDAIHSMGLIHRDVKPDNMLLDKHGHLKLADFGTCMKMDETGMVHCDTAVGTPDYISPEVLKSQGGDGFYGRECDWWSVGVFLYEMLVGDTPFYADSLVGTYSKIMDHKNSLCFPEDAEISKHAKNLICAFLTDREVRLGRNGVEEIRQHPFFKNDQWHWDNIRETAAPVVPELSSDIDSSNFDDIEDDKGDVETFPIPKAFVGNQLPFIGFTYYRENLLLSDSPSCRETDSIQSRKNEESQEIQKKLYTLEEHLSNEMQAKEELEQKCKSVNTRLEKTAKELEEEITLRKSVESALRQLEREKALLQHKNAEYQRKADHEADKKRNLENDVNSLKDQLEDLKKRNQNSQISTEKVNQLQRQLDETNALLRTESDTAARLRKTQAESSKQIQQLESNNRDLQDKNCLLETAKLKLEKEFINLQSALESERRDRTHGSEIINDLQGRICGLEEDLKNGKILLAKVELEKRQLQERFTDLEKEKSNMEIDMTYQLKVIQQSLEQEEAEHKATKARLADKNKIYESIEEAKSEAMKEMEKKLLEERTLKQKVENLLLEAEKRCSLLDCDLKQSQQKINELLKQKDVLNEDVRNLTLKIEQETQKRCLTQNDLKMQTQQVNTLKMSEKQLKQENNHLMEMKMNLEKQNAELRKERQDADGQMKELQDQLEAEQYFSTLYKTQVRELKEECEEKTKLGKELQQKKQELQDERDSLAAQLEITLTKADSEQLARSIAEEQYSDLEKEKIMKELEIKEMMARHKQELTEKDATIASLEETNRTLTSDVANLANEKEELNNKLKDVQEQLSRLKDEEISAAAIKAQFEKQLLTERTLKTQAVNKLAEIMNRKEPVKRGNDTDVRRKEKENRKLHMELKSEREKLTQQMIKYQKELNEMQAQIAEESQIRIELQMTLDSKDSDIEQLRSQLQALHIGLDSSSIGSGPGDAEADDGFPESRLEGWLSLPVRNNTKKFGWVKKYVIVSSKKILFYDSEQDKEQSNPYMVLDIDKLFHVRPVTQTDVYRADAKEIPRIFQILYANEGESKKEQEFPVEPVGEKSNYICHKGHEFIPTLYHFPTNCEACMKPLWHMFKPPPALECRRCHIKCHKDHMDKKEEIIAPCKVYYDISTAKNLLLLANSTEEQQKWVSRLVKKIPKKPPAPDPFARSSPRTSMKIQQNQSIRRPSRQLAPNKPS

Structure (SMILES) | pIC50
Cc1nc(-c2ccc(C(F)(F)F)cc2)sc1-c1cc(C#N)cc(C(=O)N[C@H]2CC3(C2)C[C@H](Oc2ncccc2C(N)=O)C3)c1 (stereo partly drawn) [Example 188, 2-((aR)-6-(3-cyano-5-(4-methyl-2-(4-(trifluoromethyl)phenyl)thiazol-5-yl)benzamido)spiro[3.3]heptan-2-yl)oxy)nicotinamide, trifluoroacetate] | 5.60 to 6.60
Cn1ccc(-c2cc(C#N)cc(C(=O)N[C@H]3CC4(C3)C[C@H](Oc3ncccc3C(N)=O)C4)c2)cc1=O (stereo partly drawn) [Example 192, 2-(((aR)-6-(3-cyano-5-(1-methyl-2-oxo-1,2-dihydropyridin-4-yl)benzamido)spiro[3.3]heptan-2-yl)oxy)nicotinamide, trifluoroacetate] | 7.30 to 8.30
N#Cc1cc(C(=O)N[C@H]2CC3(C2)C[C@H](Oc2ncccc2C(N)=O)C3)cc(-c2c[nH]nc2C(F)(F)F)c1 (stereo partly drawn) [Example 193, 2-(((aR)-6-(3-cyano-5-(3-(trifluoromethyl)-1H-pyrazol-4-yl)benzamido)spiro[3.3]heptan-2-yl)oxy)nicotinamide, trifluoroacetate] | 7.30 to 8.30
Cn1cccc(-c2cc(C#N)cc(C(=O)N[C@H]3CC4(C3)C[C@H](Oc3ncccc3C(N)=O)C4)c2)c1=O (stereo partly drawn) [Example 194, 2-(((aR)-6-(3-cyano-5-(1-methyl-2-oxo-1,2-dihydropyridin-3-yl)benzamido)spiro[3.3]heptan-2-yl)oxy)nicotinamide, trifluoroacetate] | 7.30 to 8.30
Cn1nccc1-c1cc(C#N)cc(C(=O)N[C@H]2CC3(C2)C[C@H](Oc2ncccc2C(N)=O)C3)c1 (stereo partly drawn) [Example 197, 2-(((aR)-6-(3-cyano-5-(1-methyl-1H-pyrazol-5-yl)benzamido)spiro[3.3]heptan-2-yl)oxy)nicotinamide] | 7.30 to 8.30
[H][C@]1(Oc2ncccc2C(N)=O)C[C@@]2(C[C@H](NC(=O)c3cc(C#N)cc(-c4nc5c(s4)CNCC5)c3)C2)C1 (stereo partly drawn) [Example 199, 2-(((aR)-6-(3-cyano-5-(4,5,6,7-tetrahydrothiazolo[5,4-c]pyridin-2-yl)benzamido)spiro[3.3]heptan-2-yl)oxy)nicotinamide, 2TFA] | 7.30 to 8.30
CN1CCc2nc(-c3cc(C#N)cc(C(=O)N[C@H]4CC5(C4)C[C@H](Oc4ncccc4C(N)=O)C5)c3)sc2C1 (stereo partly drawn) [Example 200, 2-(((aR)-6-(3-cyano-5-(5-methyl-4,5,6,7-tetrahydrothiazolo[5,4-c]pyridin-2-yl)benzamido)spiro[3.3]heptan-2-yl)oxy)nicotinamide, bis-trifluoroacetate] | 7.30 to 8.30
Cc1nc(-c2cc(C#N)cc(C(=O)N[C@H]3CC4(C3)C[C@H](Oc3ncccc3C(N)=O)C4)c2)cs1 (stereo partly drawn) [Example 203, 2-(((aR)-6-(3-cyano-5-(2-methylthiazol-4-yl)benzamido)spiro[3.3]heptan-2-yl)oxy)nicotinamide, trifluoroacetate] | 7.30 to 8.30
COc1cccc(C(N)=O)c1OC1CC2(CC(NC(=O)c3cnn4c(C5CC5)c(OCC(C)(C)O)ccc34)C2)C1 (stereo not drawn) [Example 208, N-(6-(2-carbamoyl-6-methoxyphenoxy)spiro[3.3]heptan-2-yl)-7-cyclopropyl-6-(2-hydroxy-2-methylpropoxy)pyrazolo[1,5-a]pyridine-3-carboxamide] | 5.60 to 6.60

Second part, the molecule after the results:

pIC50 | Structure (SMILES)
> 8.30 | [2H]C([2H])([2H])n1cc(-c2cc(C#N)cc(C(=O)N[C@H]3CC4(C3)C[C@H](Oc3ncccc3C(N)=O)C4)c2)cn1 (stereo partly drawn) [Example 181, 2-(((aR)-6-(3-cyano-5-(1-(methyl-d3)-1H-pyrazol-4-yl)benzamido)spiro [3.3]heptan-2-yl)oxy)nicotinamide, trifluoroacetate]
> 8.30 | Cc1nn(C)cc1-c1cc(C#N)cc(C(=O)N[C@H]2CC3(C2)C[C@H](Oc2ncccc2C(N)=O)C3)c1 (stereo partly drawn) [Example 182, 2-(((aR)-6-(3-cyano-5-(1,3-dimethyl-1H-pyrazol-4-yl)benzamido)spiro [3.3]heptan-2-yl)oxy)nicotinamide, trifluoroacetate]
7.30 to 8.30 | N#Cc1cc(C(=O)N[C@H]2CC3(C2)C[C@H](Oc2ncccc2C(N)=O)C3)cc(C2CC2)c1 (stereo partly drawn) [Example 183, 2-(((aR)-6-(3-cyano-5-cyclopropylbenzamido)spiro[3.3]heptan-2-yl)oxy) nicotinamide, trifluoroacetate]
7.30 to 8.30 | Cn1cc(-c2cc(C#N)cc(C(=O)N[C@H]3CC4(C3)C[C@H](Oc3ncccc3C(N)=O)C4)c2)c(C(F)(F)F)n1 (stereo partly drawn) [Example 184, 2-(((aR)-6-(3-cyano-5-(1-methyl-3-(trifluoromethyl)-1H-pyrazol-4-yl)benzamido)spiro[3.3]heptan-2-yl)oxy)nicotinamide, trifluoroacetate]
> 8.30 | Cc1c(-c2cc(C#N)cc(C(=O)N[C@H]3CC4(C3)C[C@H](Oc3ncccc3C(N)=O)C4)c2)cnn1C (stereo partly drawn) [Example 185, 2-(((aR)-6-(3-cyano-5-(1,5-dimethyl-1H-pyrazol-4-yl)benzamido)spiro[3.3]heptan-2-yl)oxy)nicotinamide, trifluoroacetate]
> 8.30 | Cc1nc2cc(-c3cc(C#N)cc(C(=O)N[C@H]4CC5(C4)C[C@H](Oc4ncccc4C(N)=O)C5)c3)ccc2s1 (stereo partly drawn) [Example 186, 2-(((aR)-6-(3-cyano-5-(2-methylbenzo[d]thiazol-5-yl)benzamido)spiro[3.3]heptan-2-yl)oxy)nicotinamide, trifluoroacetate]
> 8.30 | CC(C)Cn1cc(-c2cc(C#N)cc(C(=O)N[C@H]3CC4(C3)C[C@H](Oc3ncccc3C(N)=O)C4)c2)cn1 (stereo partly drawn) [Example 187, 2-((aR)-6-(3-cyano-5-(1-isobutyl-1H-pyrazol-4-yl)benzamido)spiro [3.3]heptan-2-yl)oxy)nicotinamide, trifluoroacetate]
> 8.30 | N#Cc1cc(C(=O)N[C@H]2CC3(C2)C[C@H](Oc2ncccc2C(N)=O)C3)cc(-c2ccc3c(c2)CCC(=O)N3)c1 (stereo partly drawn) [Example 189, 2-((aR)-6-(3-cyano-5-(2-oxo-1,2,3,4-tetrahydroquinolin-6-yl)benzamido)spiro[3.3]heptan-2-yl)oxy)nicotinamide, trifluoroacetate]
7.30 to 8.30 | Cc1noc(C)c1-c1cc(C#N)cc(C(=O)N[C@H]2CC3(C2)C[C@H](Oc2ncccc2C(N)=O)C3)c1 (stereo partly drawn) [Example 190, 2-((aR)-6-(3-cyano-5-(3,5-dimethylisoxazol-4-yl)benzamido)spiro[3.3]heptan-2-yl)oxy)nicotinamide, trifluoroacetate]
7.30 to 8.30 | N#Cc1cc(C(=O)N[C@H]2CC3(C2)C[C@H](Oc2ncccc2C(N)=O)C3)cc(-c2ccc(C#N)nc2)c1 (stereo partly drawn) [Example 191, 2-(((aR)-6-(3-cyano-5-(6-cyanopyridin-3-yl)benzamido)spiro[3.3]heptan-2-yl)oxy)nicotinamide, trifluoroacetate]
> 8.30 | CS(=O)(=O)c1ccccc1-c1cc(C#N)cc(C(=O)N[C@H]2CC3(C2)C[C@H](Oc2ncccc2C(N)=O)C3)c1 (stereo partly drawn) [Example 196, 2-(((aR)-6-(5-cyano-2′-(methylsulfonyl)-[1,1′-biphenyl]-3-ylcarboxamido)spiro[3.3]heptan-2-yl)oxy)nicotinamide]
> 8.30 | N#Cc1cc(C(=O)N[C@H]2CC3(C2)C[C@H](Oc2ncccc2C(N)=O)C3)cc(-c2cnn(C(F)F)c2)c1 (stereo partly drawn) [Example 198, 2-(((aR)-6-(3-cyano-5-(1-(difluoromethyl)-1H-pyrazol-4-yl)benzamido)spiro[3.3]heptan-2-yl)oxy)nicotinamide]
